# Experimental data from ChEMBL document CHEMBL6115030, “Systematic All-Hydrocarbon Stapling Analysis for Cecropin A Generates a Potent and Stable Antimicrobial Peptide” (J Med Chem, 2025).
# Numbered stars: 1 amine (or outer) side, 2 acyl side, 3 side chain; on linkers, the order of the positions; unused ones are H or OH. Bridge positions count the residues as written; N and C are the ends. Square brackets hold non-standard residues; d marks the D form. Peptide text beside a SMILES is read from it. ξ: configuration not given here. ξαMeNle(6-ylidene) = CC(CCCC=[*:3])(N[*:1])C(=O)[*:2]; S5 = C=CCCC[C@](C)(N)C(=O)O
# Columns and labels:
# Staphylococcus aureus = assay: Antibacterial activity against Staphylococcus aureus ATCC 25923 assessed as inhibition of bacterial growth measured after 24 hrs by broth microdilution method; assay type: functional
# Klebsiella pneumoniae [1] = assay: Antibacterial activity against Klebsiella pneumoniae ATCC 13883 assessed as inhibition of bacterial growth measured after 24 hrs by broth microdilution method; assay type: functional
# Pseudomonas aeruginosa [2] = assay: Antibacterial activity against Pseudomonas aeruginosa PAO1 assessed as inhibition of bacterial growth measured after 24 hrs by broth microdilution method; assay type: functional
# Acinetobacter baumannii = assay: Antibacterial activity against Pandrug-resistant Acinetobacter baumannii assessed as inhibition of bacterial growth measured after 24 hrs by broth microdilution method; assay type: functional
# Klebsiella pneumoniae [3] = assay: Antibacterial activity against Carbapenem-resistant Klebsiella pneumoniae assessed as inhibition of bacterial growth measured after 24 hrs by broth microdilution method; assay type: functional
# Pseudomonas aeruginosa [4] = assay: Antibacterial activity against Carbapenem-resistant Pseudomonas aeruginosa assessed as inhibition of bacterial growth measured after 24 hrs by broth microdilution method; assay type: functional
# Pseudomonas aeruginosa [5] = assay: Antibacterial activity against Pandrug-resistant Pseudomonas aeruginosa assessed as inhibition of bacterial growth measured after 24 hrs by broth microdilution method; assay type: functional
# Salmonella typhimurium = assay: Antibacterial activity against Salmonella typhimurium assessed as inhibition of bacterial growth measured after 24 hrs by broth microdilution method; assay type: functional, Salmonella enterica subsp. enterica serovar Typhimurium; settings: Salmonella enterica
# Shigella flexneri = assay: Antibacterial activity against Shigella flexneri 301 assessed as inhibition of bacterial growth measured after 24 hrs by broth microdilution method; assay type: functional
# [6] = Hemolytic activity in human RBC assessed as hemolysis incubated for 1 hr by microplate reader; assay type: toxicity, cell-based, Erythrocyte; settings: erythrocyte, 1 h
Compound,MIC (Staphylococcus aureus) [µM],MIC (Klebsiella pneumoniae [1]) [µM],MIC (Pseudomonas aeruginosa [2]) [µM],MIC (Acinetobacter baumannii) [µM],MIC (Klebsiella pneumoniae [3]) [µM],MIC (Pseudomonas aeruginosa [4]) [µM],MIC (Pseudomonas aeruginosa [5]) [µM],MIC (Salmonella typhimurium) [µM],MIC (Shigella flexneri) [µM],Activity [6]
CC[C@H](C)[C@H](NC(=O)CNC(=O)[C@H](CC(=O)O)NC(=O)[C@H](CCCNC(=N)N)NC(=O)[C@@H](NC(=O)[C@H](CC(N)=O)NC(=O)[C@H](CCC(N)=O)NC(=O)CNC(=O)[C@@H](NC(=O)[C@H](CCCCN)NC(=O)[C@H](CCC(=O)O)NC(=O)[C@@H](NC(=O)[C@H](CCCCN)NC(=O)[C@H](CCCCN)NC(=O)[C@H](Cc1ccccc1)NC(=O)[C@H](CC(C)C)NC(=O)[C@H](CCCCN)NC(=O)[C@H](Cc1c[nH]c2ccccc12)NC(=O)[C@H](CCCCN)NC(C)=O)[C@@H](C)CC)C(C)C)[C@@H](C)CC)C(=O)N[C@H](C(=O)N[C@@H](CCCCN)C(=O)N[C@@H](C)C(=O)NCC(=O)N1CCC[C@H]1C(=O)N[C@@H](C)C(=O)N[C@H](C(=O)N[C@@H](C)C(=O)N[C@H](C(=O)N[C@H](C(=O)NCC(=O)N[C@@H](CCC(N)=O)C(=O)N[C@@]1(C)CCC/C=C/CCC[C@@](C)(C(=O)N[C@@H](CCCCN)C(N)=O)NC(=O)[C@H]([C@@H](C)CC)NC(=O)[C@H](CCC(N)=O)NC(=O)[C@H]([C@@H](C)O)NC1=O)C(C)C)C(C)C)C(C)C)[C@@H](C)CC (Ac-KWKLFKKIEKVGQNIRDGIIKAGPAVAVVGQ[S5]TQI[S5]K-NH2; staple (E) 32-36),1.56,3.13,6.25,< 0.78,3.13,> 100,25,3.13,< 0.78,–
CC[C@H](C)[C@H](NC(=O)CNC(=O)[C@H](CC(=O)O)NC(=O)[C@H](CCCNC(=N)N)NC(=O)[C@@H](NC(=O)[C@H](CC(N)=O)NC(=O)[C@H](CCC(N)=O)NC(=O)CNC(=O)[C@@H](NC(=O)[C@H](CCCCN)NC(=O)[C@H](CCC(=O)O)NC(=O)[C@@H](NC(=O)[C@H](CCCCN)NC(=O)[C@H](CCCCN)NC(=O)[C@H](Cc1ccccc1)NC(=O)[C@H](CC(C)C)NC(=O)[C@H](CCCCN)NC(=O)[C@H](Cc1c[nH]c2ccccc12)NC(=O)[C@H](CCCCN)NC(C)=O)[C@@H](C)CC)C(C)C)[C@@H](C)CC)C(=O)N[C@H](C(=O)N[C@@H](CCCCN)C(=O)N[C@@H](C)C(=O)NCC(=O)N1CCC[C@H]1C(=O)N[C@@H](C)C(=O)N[C@H](C(=O)N[C@@H](C)C(=O)N[C@H](C(=O)N[C@H](C(=O)NCC(=O)N[C@@]1(C)CCC/C=C\CCC[C@@](C)(C(=O)N[C@@H](C)C(=O)N[C@@H](CCCCN)C(N)=O)NC(=O)[C@H](CCC(N)=O)NC(=O)[C@H]([C@@H](C)O)NC(=O)[C@H](C)NC1=O)C(C)C)C(C)C)C(C)C)[C@@H](C)CC (Ac-KWKLFKKIEKVGQNIRDGIIKAGPAVAVVG[S5]ATQ[S5]AK-NH2; staple (Z) 31-35),3.13,12.5,12.5,–,–,–,–,–,–,Non-toxic
CC[C@H](C)[C@H](NC(=O)CNC(=O)[C@H](CC(=O)O)NC(=O)[C@H](CCCNC(=N)N)NC(=O)[C@@H](NC(=O)[C@H](CC(N)=O)NC(=O)[C@H](CCC(N)=O)NC(=O)CNC(=O)[C@@H](NC(=O)[C@H](CCCCN)NC(=O)[C@H](CCC(=O)O)NC(=O)[C@@H](NC(=O)[C@H](CCCCN)NC(=O)[C@H](CCCCN)NC(=O)[C@H](Cc1ccccc1)NC(=O)[C@H](CC(C)C)NC(=O)[C@H](CCCCN)NC(=O)[C@H](Cc1c[nH]c2ccccc12)NC(=O)[C@H](CCCCN)NC(C)=O)[C@@H](C)CC)C(C)C)[C@@H](C)CC)C(=O)N[C@H](C(=O)N[C@@H](CCCCN)C(=O)N[C@@H](C)C(=O)NCC(=O)N1CCC[C@H]1C(=O)N[C@@H](C)C(=O)N[C@H](C(=O)N[C@@H](C)C(=O)N[C@H](C(=O)N[C@H](C(=O)NC1(C)CCC/C=C\CCC[C@@](C)(C(=O)N[C@H](C(=O)N[C@@H](C)C(=O)N[C@@H](CCCCN)C(N)=O)[C@@H](C)CC)NC(=O)[C@H]([C@@H](C)O)NC(=O)[C@H](C)NC(=O)[C@H](CCC(N)=O)NC1=O)C(C)C)C(C)C)C(C)C)[C@@H](C)CC (stereo not given in full) (Ac-KWKLFKKIEKVGQNIRDGIIKAGPAVAVV[ξαMeNle(6-ylidene)]QAT[S5]IAK-NH2; staple (Z) 30-34),3.13,6.25,6.25,–,–,–,–,–,–,Non-toxic
CC[C@H](C)[C@H](NC(=O)CNC(=O)[C@H](CC(=O)O)NC(=O)[C@H](CCCNC(=N)N)NC(=O)[C@@H](NC(=O)[C@H](CC(N)=O)NC(=O)[C@H](CCC(N)=O)NC(=O)CNC(=O)[C@@H](NC(=O)[C@H](CCCCN)NC(=O)[C@H](CCC(=O)O)NC(=O)[C@@H](NC(=O)[C@H](CCCCN)NC(=O)[C@H](CCCCN)NC(=O)[C@H](Cc1ccccc1)NC(=O)[C@H](CC(C)C)NC(=O)[C@H](CCCCN)NC(=O)[C@H](Cc1c[nH]c2ccccc12)NC(=O)[C@H](CCCCN)NC(C)=O)[C@@H](C)CC)C(C)C)[C@@H](C)CC)C(=O)N[C@H](C(=O)N[C@@H](CCCCN)C(=O)N[C@@H](C)C(=O)NCC(=O)N1CCC[C@H]1C(=O)N[C@@H](C)C(=O)N[C@H](C(=O)N[C@@H](C)C(=O)N[C@H](C(=O)N[C@@]1(C)CCC/C=C\CCC[C@@](C)(C(=O)N[C@@H](CCC(N)=O)C(=O)N[C@H](C(=O)N[C@@H](C)C(=O)N[C@@H](CCCCN)C(N)=O)[C@@H](C)CC)NC(=O)[C@H](C)NC(=O)[C@H](CCC(N)=O)NC(=O)CNC1=O)C(C)C)C(C)C)[C@@H](C)CC (Ac-KWKLFKKIEKVGQNIRDGIIKAGPAVAV[S5]GQA[S5]QIAK-NH2; staple (Z) 29-33),1.56,1.56,6.25,< 0.78,3.13,> 100,25,1.5,< 0.78,–
CC[C@H](C)[C@H](NC(=O)CNC(=O)[C@H](CC(=O)O)NC(=O)[C@H](CCCNC(=N)N)NC(=O)[C@@H](NC(=O)[C@H](CC(N)=O)NC(=O)[C@H](CCC(N)=O)NC(=O)CNC(=O)[C@@H](NC(=O)[C@H](CCCCN)NC(=O)[C@H](CCC(=O)O)NC(=O)[C@@H](NC(=O)[C@]1(C)CCC/C=C\CCC[C@](C)(NC(=O)[C@H](Cc2c[nH]c3ccccc23)NC(=O)[C@H](CCCCN)NC(C)=O)C(=O)N[C@@H](CC(C)C)C(=O)N[C@@H](Cc2ccccc2)C(=O)N[C@@H](CCCCN)C(=O)N1)[C@@H](C)CC)C(C)C)[C@@H](C)CC)C(=O)N[C@H](C(=O)N[C@@H](CCCCN)C(=O)N[C@@H](C)C(=O)NCC(=O)N1CCC[C@H]1C(=O)N[C@@H](C)C(=O)N[C@H](C(=O)N[C@@H](C)C(=O)N[C@H](C(=O)N[C@H](C(=O)NCC(=O)N[C@@H](CCC(N)=O)C(=O)N[C@@H](C)C(=O)N[C@H](C(=O)N[C@@H](CCC(N)=O)C(=O)N[C@H](C(=O)N[C@@H](C)C(=O)N[C@@H](CCCCN)C(N)=O)[C@@H](C)CC)[C@@H](C)O)C(C)C)C(C)C)C(C)C)[C@@H](C)CC (Ac-KW[S5]LFK[S5]IEKVGQNIRDGIIKAGPAVAVVGQATQIAK-NH2; staple (Z) 3-7),> 100,> 100,> 100,–,–,–,–,–,–,–
CC[C@H](C)[C@H](NC(=O)CNC(=O)[C@H](CC(=O)O)NC(=O)[C@H](CCCNC(=N)N)NC(=O)[C@@H](NC(=O)[C@H](CC(N)=O)NC(=O)[C@H](CCC(N)=O)NC(=O)CNC(=O)[C@@H](NC(=O)[C@H](CCCCN)NC(=O)[C@H](CCC(=O)O)NC(=O)[C@@H](NC(=O)[C@H](CCCCN)NC(=O)[C@]1(C)CCC/C=C\CCC[C@](C)(NC(=O)[C@H](CCCCN)NC(C)=O)C(=O)N[C@@H](CCCCN)C(=O)N[C@@H](CC(C)C)C(=O)N[C@@H](Cc2ccccc2)C(=O)N1)[C@@H](C)CC)C(C)C)[C@@H](C)CC)C(=O)N[C@H](C(=O)N[C@@H](CCCCN)C(=O)N[C@@H](C)C(=O)NCC(=O)N1CCC[C@H]1C(=O)N[C@@H](C)C(=O)N[C@H](C(=O)N[C@@H](C)C(=O)N[C@H](C(=O)N[C@H](C(=O)NCC(=O)N[C@@H](CCC(N)=O)C(=O)N[C@@H](C)C(=O)N[C@H](C(=O)N[C@@H](CCC(N)=O)C(=O)N[C@H](C(=O)N[C@@H](C)C(=O)N[C@@H](CCCCN)C(N)=O)[C@@H](C)CC)[C@@H](C)O)C(C)C)C(C)C)C(C)C)[C@@H](C)CC (Ac-K[S5]KLF[S5]KIEKVGQNIRDGIIKAGPAVAVVGQATQIAK-NH2; staple (Z) 2-6),> 100,> 100,> 100,–,–,–,–,–,–,–
CC[C@H](C)[C@H](NC(=O)CNC(=O)[C@H](CC(=O)O)NC(=O)[C@H](CCCNC(=N)N)NC(=O)[C@@H](NC(=O)[C@H](CC(N)=O)NC(=O)[C@H](CCC(N)=O)NC(=O)CNC(=O)[C@@H](NC(=O)[C@H](CCCCN)NC(=O)[C@H](CCC(=O)O)NC(=O)[C@@H](NC(=O)[C@H](CCCCN)NC(=O)[C@H](CCCCN)NC(=O)[C@]1(C)CCC/C=C\CCC[C@](C)(NC(C)=O)C(=O)N[C@@H](Cc2c[nH]c3ccccc23)C(=O)N[C@@H](CCCCN)C(=O)N[C@@H](CC(C)C)C(=O)N1)[C@@H](C)CC)C(C)C)[C@@H](C)CC)C(=O)N[C@H](C(=O)N[C@@H](CCCCN)C(=O)N[C@@H](C)C(=O)NCC(=O)N1CCC[C@H]1C(=O)N[C@@H](C)C(=O)N[C@H](C(=O)N[C@@H](C)C(=O)N[C@H](C(=O)N[C@H](C(=O)NCC(=O)N[C@@H](CCC(N)=O)C(=O)N[C@@H](C)C(=O)N[C@H](C(=O)N[C@@H](CCC(N)=O)C(=O)N[C@H](C(=O)N[C@@H](C)C(=O)N[C@@H](CCCCN)C(N)=O)[C@@H](C)CC)[C@@H](C)O)C(C)C)C(C)C)C(C)C)[C@@H](C)CC (Ac-[S5]WKL[S5]KKIEKVGQNIRDGIIKAGPAVAVVGQATQIAK-NH2; staple (Z) 1-5),> 100,12.5,> 100,–,–,–,–,–,–,–
